Laboratory results as given in patent US6794356B2, “Fabric softening composition comprising a malodor controlling agent” (The Procter & Gamble Company, priority 2000, dated 2004).

Details: typical approximate values; salt added to the solution

| Structure (SMILES) | cloud point of 1% solution of Neodol 91-8 |
| --- | --- |
| O=S(=O)([O-])[O-].[Ca+2] [calcium sulfate] | no change |
| [Cl-].[Na+] [sodium chloride] | 63-66.9 °C |
